Measurements as given in patent publication US20090082329A1 (AVENTIS PHARMA S.A., priority 2006, published 2009).
Where two headings read alike, the source gives them in different places.

Assays:
IGF-1R in MCF7 cells = IGF-1R in MCF7 cells (Homo sapiens, UniProt P08069); experiment: Autophosphorylation of IGF-1R in MCF7 cells after stimulation with IGF-1 (ELISA); format: cell-based; design: endogenous in cells; host or cells: MCF-7 cells; conditions: MCF-7 cells, compound added one hour before stimulation with IGF1; read-out: Test B IC50
Procedure: B) Measurement of the Autophosphorylation of IGF-1R in MCF7 Cells after Stimulation with IGF-1
Cell Culturing and Execution of the Test:
The autophosphorylation of IGF1R in the IGF1-induced cells is evaluated by means of an ELISA technique (Enzyme Linked ImmunoSorbent Assay). The MCF-7 are seeded at 60 000 cells per well in 6-well plates and incubated at 37° C., 5% CO2 in medium containing 10% serum. After one night in 10% serum, the cells are deprived of serum for 24 hours. The compounds are added to the medium one hour before stimulation with IGF1. After 10 minutes of stimulation with IGF1, the cells are lysed with a buffer (Hepes 50 mM pH 7.6, Triton X100 1%, orthovanadate 2 mM, protease inhibitor cocktail). The cell lysates are incubated on a 96-well plate precoated with an anti-IGF1R antibody, followed by incubation with an anti-phosphotyrosine antibody coupled to the enzyme peroxidase. The level of peroxidase activity (measured by OD with a luminescent substrate) reflects the phosphorylation status of the receptor.
(§1) (i) The tests are performed in duplicate and the mean of the two tests is calculated.
(§2) (ii) The value of the signal of the maximum response is calculated from the positive control: cells stimulated with IGF1 without compound.
(§3) (iii) Value of the signal of the minimum response is calculated from the negative control: cells not stimulated with IGF1 without compound.
(§4) (iv) By using these values as maximum (100%) and minimum (0%), respectively, the data were normalized so as to give a percentage of the maximum response.
(§5) (v) A curve of dose response is plotted and the IC50 (the concentration of which the compound induces a 50% decrease in the signal) of the compound is calculated by non-linear regression analysis.

MEF-IGF1R cells = experiment: Proliferation/viability of MEF-IGF1R (Thymidine [14C] incorporation); format: cell-based; conditions: rhIGF1 100 ng/mL, incubation 72 hours, read-out: Test C IC50
Procedure: C) Measurement of the Proliferation/Viability of MEF-IGF1R
Cell culture: the MEF-IGF1R cells (stable clone of cells transfected with the receptor hIGF-1R) are cultured at 37° C. under 5% CO2 in EMEM medium containing 10% FCS.
Test procedure: the cells are seeded at 5000 cells per well in 96-well Cytostar plates (Amersham) with 0.2 mL of EMEM culture medium at 37° C. for 18 hours. The cells are then washed twice with EMEM medium and left to culture without serum for 24 hours. The compounds are then added at various concentrations in the presence of rhIGF1 (100 ng/mL) and 0.1 μCi of Thymidine [^14C] (specific activity ˜50 mCi/mmol) to give 0.2 mL of volume per well. After incubation for 72 hours in the presence of the compound, at 37° C. under 5% CO2, the incorporation of Thymidine [^14C] is measured by counting the radioactivity on a Microbeta trilux counter (Perkin-Elmer). The IC50 is determined from 10 increasing concentrations of the compound.
as §1, §2, §3, §4, §5

[1] = target: T1, human cytoplasmic domain of IGF-1R (Homo sapiens, UniProt P08069); experiment: Kinase IGF-1R test: inhibition of autophosphorylation of the enzyme (HTRF); format: biochemical; conditions: ATP 120 μM
T1 construct: The human cytoplasmic domain of IGF-1R was cloned by fusion with glutathione S-transferase (GST); made in house; host or cells: SF21 insect cells (baculovirus, pFastBac-GST)
Procedure: A) Experimental Protocol for the Kinase IGF-1R Test:
The inhibitory activity of the compounds on IGF1R is determined by measuring the inhibition of autophosphorylation of the enzyme using a time-resolved fluorescence test (HTRF). The human cytoplasmic domain of IGF-1R was cloned by fusion with glutathione S-transferase (GST) in the baculovirus expression vector pFastBac-GST. The protein is expressed in the SF21 cells and purified to about 80% homogeneity. For the enzymatic test, the test compound at 10 mM dissolved in DMSO is diluted in ⅓ steps in a 50 mM Hepes, pH 7.5, 5 mM MnCl2, 50 mM NaCl, 3% Glycerol, 0.025% Tween 20 buffer. To measure the inhibition, the successive dilutions of the compound are preincubated for 30 minutes and 90 minutes in the presence of 5 nM of enzyme, the final DMSO concentration not exceeding 1%. The enzymatic reaction is initiated to have a final ATP concentration of 120 μM, and is stopped after 5 minutes by addition of 100 mM Hepes, pH 7.0 buffer containing 0.4 M of potassium fluoride, 133 mM EDTA, 0.1% BSA, the XL665-labelled antibody anti-GST and the anti-phosphotyrosine antibody conjugated to europium cryptate Eu—K (Cis-Bio Int.). The characteristics of the two fluorophores, XL-665 and Eu—K, are available in G. Mathis et al., Anticancer Research, 1997, 17, pages 3011-3014. The energy transfer between the excited europium cryptate to the acceptor XL665 is proportional to the degree of autophosphorylation of IGF-1R. The specific long-lasting signal of XL-665 is measured in a GENios Pro TECAN plate counter. The inhibition of autophosphorylation of IGF-1R at time 30 minutes and 90 minutes with the test compounds of the invention is calculated relative to a 1% in DMSO control, whose activity is measured in the absence of compound. The curve representing the percentage of inhibition as a function of the log of the concentration is established to determine the concentration corresponding to 50% inhibition (IC50),

[2] = preincubation 30 minutes with 5 nM enzyme, read-out: Test A 30′ IC50
[3] = preincubation 90 minutes with 5 nM enzyme, read-out: Test A 90′ IC50

IGF-1R in MCF7 cells, sequence (P08069 31-1367): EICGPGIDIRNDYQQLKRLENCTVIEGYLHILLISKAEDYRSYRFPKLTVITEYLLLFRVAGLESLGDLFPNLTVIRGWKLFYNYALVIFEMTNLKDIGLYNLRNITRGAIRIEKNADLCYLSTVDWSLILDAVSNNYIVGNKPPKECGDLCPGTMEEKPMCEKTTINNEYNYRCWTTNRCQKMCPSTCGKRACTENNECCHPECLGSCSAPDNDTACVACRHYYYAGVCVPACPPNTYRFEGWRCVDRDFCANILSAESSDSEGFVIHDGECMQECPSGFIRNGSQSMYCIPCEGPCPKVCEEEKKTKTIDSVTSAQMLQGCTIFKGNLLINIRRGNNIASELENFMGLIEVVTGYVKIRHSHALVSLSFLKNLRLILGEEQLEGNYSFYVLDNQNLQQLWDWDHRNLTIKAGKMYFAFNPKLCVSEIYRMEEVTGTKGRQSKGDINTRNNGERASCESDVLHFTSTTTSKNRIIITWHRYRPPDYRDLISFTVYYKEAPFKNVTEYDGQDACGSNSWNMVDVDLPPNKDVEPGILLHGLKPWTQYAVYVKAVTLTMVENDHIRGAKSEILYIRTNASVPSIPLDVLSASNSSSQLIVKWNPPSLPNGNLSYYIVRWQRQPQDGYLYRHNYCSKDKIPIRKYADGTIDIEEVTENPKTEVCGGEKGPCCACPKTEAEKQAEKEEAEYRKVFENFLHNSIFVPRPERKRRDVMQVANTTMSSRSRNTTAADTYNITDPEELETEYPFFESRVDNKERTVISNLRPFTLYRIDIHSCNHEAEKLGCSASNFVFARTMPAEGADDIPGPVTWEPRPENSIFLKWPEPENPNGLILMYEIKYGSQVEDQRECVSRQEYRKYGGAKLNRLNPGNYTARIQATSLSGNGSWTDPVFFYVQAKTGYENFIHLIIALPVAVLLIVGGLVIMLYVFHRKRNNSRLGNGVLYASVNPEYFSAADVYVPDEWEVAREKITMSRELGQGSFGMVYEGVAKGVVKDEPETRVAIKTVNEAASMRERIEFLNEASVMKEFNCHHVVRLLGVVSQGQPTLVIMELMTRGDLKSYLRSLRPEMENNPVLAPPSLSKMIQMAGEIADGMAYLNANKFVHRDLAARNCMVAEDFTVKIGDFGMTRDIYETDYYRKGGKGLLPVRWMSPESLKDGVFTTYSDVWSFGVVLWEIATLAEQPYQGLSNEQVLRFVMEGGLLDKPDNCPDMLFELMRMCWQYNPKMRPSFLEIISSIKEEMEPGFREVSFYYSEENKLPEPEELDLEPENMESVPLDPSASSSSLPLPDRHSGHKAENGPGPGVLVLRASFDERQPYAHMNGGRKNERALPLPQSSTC
T1 sequence (P08069 960-1367 limits assumed): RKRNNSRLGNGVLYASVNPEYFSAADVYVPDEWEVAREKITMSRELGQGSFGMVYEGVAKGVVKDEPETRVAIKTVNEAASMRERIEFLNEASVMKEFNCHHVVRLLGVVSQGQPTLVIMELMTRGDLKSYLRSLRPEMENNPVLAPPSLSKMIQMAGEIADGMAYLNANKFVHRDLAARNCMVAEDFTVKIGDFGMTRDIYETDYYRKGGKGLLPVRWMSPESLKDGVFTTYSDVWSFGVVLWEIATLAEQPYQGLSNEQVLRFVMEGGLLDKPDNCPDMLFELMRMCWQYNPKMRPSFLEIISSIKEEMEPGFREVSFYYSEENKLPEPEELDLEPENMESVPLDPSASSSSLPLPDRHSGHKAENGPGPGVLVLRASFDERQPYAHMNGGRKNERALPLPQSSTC

IC50 (IGF-1R in MCF7 cells) | IC50 [1, 2] | IC50 [1, 3] | Compound | IC50 (MEF-IGF1R cells)
> 100 nM | > 100 nM | 10 to 100 nM | Cc1ccc(F)c(C(=O)Nc2cc(CN3C(=O)N(c4ccc(SC(F)(F)F)cc4)C(=O)C3(C)C)ccn2)c1Cl [Example 7, 2-chloro-N-{4-[(5,5-dimethyl-2,4-dioxo-3-{4-[(tri-fluoromethyl)thio]phenyl}imidazolidin-1-yl)methyl]pyridin-2-yl}-6-fluoro-3-methylbenzamide] | 10 to 100 nM
< 10 nM | 10 to 100 nM | < 10 nM | CC1(C)C(=O)N(c2ccc(SC(F)(F)F)cc2)C(=O)N1Cc1ccnc(Nc2cccnc2)n1 [Example 11, 5,5-dimethyl-1-{[2-(pyridin-3-ylamino)pyrimidin-4-yl]methyl}-3-{4-[(trifluoromethyl)thio]phenyl}imidazolidine-2,4-dione] | < 10 nM
> 100 nM | > 100 nM | > 100 nM | CC1(C)C(=O)N(c2ccc(SC(F)(F)F)cc2)C(=O)N1Cc1ccnc(Nc2cncnc2)c1 [Example 14, 5,5-dimethyl-1-{[2-(pyrimidin-5-ylamino)pyridin-4-yl]methyl}-3-{4-[(trifluoromethyl)thio]phenyl}imidazolidine-2,4-dione] | > 100 nM
10 to 100 nM | 10 to 100 nM | 10 to 100 nM | CC1(C)C(=O)N(c2ccc(SC(F)(F)F)cc2)C(=O)N1Cc1ccnc(Nc2cncnc2)n1 [Example 15, 5,5-dimethyl-1-{[2-(pyrimidin-5-ylamino)pyrimidin-4-yl]methyl}-3-{4-[(trifluoromethyl)thio]phenyl}imidazolidine-2,4-dione] | > 100 nM
10 to 100 nM | 10 to 100 nM | 10 to 100 nM | CCOC(=O)Nc1cc(CN2C(=O)N(c3ccc(SC(F)(F)F)cc3)C(=O)C2(C)C)ccn1 [Example 18 Stage a), ethyl {4-[(5,5-dimethyl-2,4-dioxo-3-{4-[(trifluoromethyl)thio]phenyl}imidazolidin-1-yl)methyl]pyridin-2-yl}carbamate] | 10 to 100 nM
10 to 100 nM | 10 to 100 nM | 10 to 100 nM | CC1(C)C(=O)N(c2ccc(SC(F)(F)F)cc2)C(=O)N1Cc1ccnc(NC(=O)NCCCN2CCCC2)c1 [Example 18, 1-{4-[(5,5-dimethyl-2,4-dioxo-3-{4-[(trifluoro-methyl)thio]phenyl}imidazolidin-1-yl)methyl]pyridin-2-yl}-3-(3-pyrrolidin-1-ylpropyl)urea] | > 100 nM
< 10 nM | 10 to 100 nM | 10 to 100 nM | CC1(C)C(=O)N(c2ccc(SC(F)(F)F)cc2)C(=O)N1Cc1ccnc(NC(=O)NC2CCCC2)c1 [Example 19, 1-cyclopentyl-3-{4-[(5,5-dimethyl-2,4-dioxo-3-{4-[(trifluoromethyl)thio]phenyl}imidazolidin-1-yl)methyl]pyridin-2-yl}urea] | 10 to 100 nM
10 to 100 nM | 10 to 100 nM | 10 to 100 nM | CC1(C)C(=O)N(c2ccc(SC(F)(F)F)cc2)C(=O)N1Cc1ccnc(NC(=O)NCCCCN2CCCC2)c1 [Example 21, 1-{4-[(5,5-dimethyl-2,4-dioxo-3-{4-[(trifluoro-methyl)thio]phenyl}imidazolidin-1-yl)methyl]pyridin-2-yl}-3-(4-pyrrolidin-1-ylbutyl)urea] | > 100 nM
10 to 100 nM | 10 to 100 nM | 10 to 100 nM | CC1(C)C(=O)N(c2ccc(SC(F)(F)F)cc2)C(=O)N1Cc1ccnc(NC(=O)NC2CCC2)c1 [Example 23, 1-cyclobutyl-3-{4-[(5,5-dimethyl-2,4-dioxo-3-{4-[(trifluoromethyl)thio]phenyl}imidazolidin-1-yl)methyl]pyridin-2-yl}urea] | 10 to 100 nM

The remaining lines, values behind:

Compound | IC50 (IGF-1R in MCF7 cells) | IC50 [1, 2] | IC50 [1, 3] | IC50 (MEF-IGF1R cells)
CC1(C)C(=O)N(c2ccc(SC(F)(F)F)cc2)C(=O)N1Cc1ccnc(NC(=O)c2cc(Cl)cc(Cl)c2)c1 [Example 6, 3,5-dichloro-N-{4-[(5,5-dimethyl-2,4-dioxo-3-{4-[(trifluoromethyl)thio]phenyl}imidazolidin-1-yl)methyl]pyridin-2-yl}benzamide] | > 100 nM | > 100 nM |  | < 10 nM
CN(C)C(=O)c1cccc(Nc2cc(CN3C(=O)N(c4ccc(SC(F)(F)F)cc4)C(=O)C3(C)C)ccn2)c1 [Example 8, 3-({4-[(5,5-dimethyl-2,4-dioxo-3-{4-[(trifluoro-methyl)thio]phenyl}imidazolidin-1-yl)methyl]pyridin-2-yl}amino)-N,N-dimethylbenzamide] | < 10 nM | 10 to 100 nM | < 10 nM | 10 to 100 nM
C[C@H](CO)Nc1nccc(CN2C(=O)N(c3ccc(S(=O)(=O)C(F)(F)F)cc3)C(=O)C2(C)C)n1 [Example 9, 1-[(2-{[(1R)-2-hydroxy-1-methylethyl]amino}-pyrimidin-4-yl)methyl]-5,5-dimethyl-3-{4-[(trifluoromethyl)-sulfonyl]phenyl}imidazolidine-2,4-dione] | > 100 nM | > 100 nM | 10 to 100 nM | 10 to 100 nM
CC1(C)C(=O)N(c2ccc(S(=O)(=O)C(F)(F)F)cc2)C(=O)N1Cc1ccnc(Nc2cncnc2)n1 [Example 16, 5,5-dimethyl-1-{[2-(pyrimidin-5-ylamino)pyrimidin-4-yl]methyl}-3-{4-[(trifluoromethyl)sulfonyl]phenyl}imidazolidine-2,4-dione] | 10 to 100 nM | 10 to 100 nM | 10 to 100 nM | > 100 nM
CC1(C)C(=O)N(c2ccc(SC(F)(F)F)cc2)C(=O)N1Cc1ccnc(NC(=O)NCCN2CCCC2)c1 [Example 20, 1-{4-[(5,5-dimethyl-2,4-dioxo-3-{4-[(trifluoro-methyl)thio]phenyl}imidazolidin-1-yl)methyl]pyridin-2-yl}-3-(2-pyrrolidin-1-ylethyl)urea] | > 100 nM | > 100 nM | > 100 nM | > 100 nM
CC1(C)C(=O)N(c2ccc(SC(F)(F)F)cc2)C(=O)N1Cc1ccnc(NC(=O)NC2CC2)c1 [Example 22, 1-cyclopropyl-3-{4-[(5,5-dimethyl-2,4-dioxo-3-{4-[(trifluoromethyl)thio]phenyl}imidazolidin-1-yl)methyl]pyridin-2-yl}urea] | 10 to 100 nM | 10 to 100 nM | 10 to 100 nM | 10 to 100 nM
